Reference: patent US11820822B2, “Methods for sensitizing cancer cells to T cell-mediated killing by modulating molecular pathways” (DANA-FARBER CANCER INSTITUTE, INC., priority 2017, dated 2023)

What was measured:
[1] = tested on: Otulin, Dusp6 and Nf1 knockout B16F10 cells; test: Doxorubicin-induced cell death; format: cell-based, mouse; details: Dusp6 or Nf1 inactivated B16F10-Cas9 cells vs control cells, 24 or 48 hours
Protocol: The knockout cell lines (GFP+) were mixed with control cells (GFP−) at 1:1 ratio. The mixture of cells was then seeded at 200,000 cells/well in a 6-well plate. Eighteen hours after seeding, different doses of doxorubicin (Sigma-Aldrich, D1515) as indicated in FIG. 11 were added to the cell culture (triplicate wells per condition). After 24 or 48 hours, cells were harvested and stained with DAPI (5 μg/ml) for 5 minutes in PBS with 2% FBS at room temperature. The ratio of GFP+/GFP−was determined by FACS (gated on DAPI− for live cells).

B16F10-Cas9 cells = test: PD-L1 expression by FACS after IFNγ stimulation (Cas9 editing efficiency of B16F10-Cas9 clones); format: cell-based, mouse; details: B16F10 tumor cells, IFNγ 10 ng/ml for 24 hours
Protocol: To acquire clones with high Cas9 activity, B16F10-Cas9 cells were single-cell sorted into 96-well plates. Multiple were infected with lentivirus driving expression of a gRNA specific for Cd274 and mCherry. Ten days post-infection, each individual clone was stimulated with 10 ng/ml of IFNγ for 24 hours and the expression of PD-L1 was determined by fluorescence-activated cells sorting (FACS) using an anti-Cd274 antibody (clone 10F.9G2, BioLegend, #124311). Cas9 efficiency was determined by the percentage of PD-L1 negative cells in the transduced (mCherry+) population.

Molecule	sensitivity to doxorubicin induced cell death [1]	PD-L1 expression (B16F10-Cas9 cells)
COc1cccc2c1C(=O)c1c(O)c3c(c(O)c1C2=O)C[C@@](O)(C(=O)CO)C[C@@H]3O[C@H]1C[C@H](N)[C@H](O)[C@H](C)O1 [doxorubicin]	did not render them more sensitive	
IFNγ: cytokine used to stimulate B16F10 cells (protein, UniProt P01580 23-155, looked up) Interferon gamma: HGTVIESLESLNNYFNSSGIDVEEKSLFLDIWRNWQKDGDMKILQSQIISFYLRLFEVLKDNQAISNNISVIESHLITTFFSNSKAKKDAFMSIAKFEVNNPQVQRQAFNELIRVVHQLLPESSLRKRKRSRC		strong upregulation
